In patent US20250248405A1, “COMBINATIONS FOR CONTROLLING POST-HARVEST PATHOGENS IN AGRICULTURAL PRODUCE AND METHOD OF USE THEREOF” (Decco Worldwide Post Harvest Holding BV, priority 2024, published 2025):

Experiments:
[1] = tested on: Candida oleophila strain O; experiment: Compatibility test on fungicide-amended PDA solid medium (colony count of biocontrol agent); assay type: cell-based; conditions: for Compatibility: Candida oleophila strain O 10^2-10^3 cfu/ml
Protocol: “Compatibility” as used herein the specification, means how well a fungicide mixes with other substances. It's important to know how two formulations interact with other to avoid problems like reduced effectiveness or increased toxicity and herein measured by the unaffected colony count of biocontrol agent upon mixing with chemical fungicides.
The disclosure will be illustrated with reference to the following examples: Compatibility of biocontrol agent: Candida oleophila strain O was tested with various preharvest and post-harvest fungicides to test if they have any negative effect on Candida oleophila strain activity. The dry mass of a single Candida oleophila cell, including strain O, is approximately 47.65 picograms (pg) (48 pg=48×10^−9 mg), which is a typical mass for a single yeast cell.
1 gram of biomass (10^10 cfu/gm) was activated in 100 ml of water for 45 minutes. 1 ml of the biomass suspension was mixed with 99 ml of lactate dilution (2 g calcium lactate diluted in 99 ml water). Biomass solution was further diluted to 100 and 1000 folds and 100 μl of the diluted biomass solution was plated on synthetic fungicide amended PDA (Potato dextrose agar) plates, which yields around 10^3 and 10^2 cfu/plate, respectively, in fully compatible mixtures. Plates were incubated at 23° C. and the growth of CFUs (colony forming units) and total number of Candida oleophila colonies were counted after 5-7 days.
Pesticide amended PDA plates were prepared by inoculating pesticide on a Potato dextrose agar plate at no treatment (control), standard (full dose) and reduced (half dose) depending on the treatments. For e.g., if a pesticide has standard dose concentration of 5 ppm, then plates were prepared at 0 ppm, 2.5 ppm and 5 ppm. with that pesticide.

Neofabraea perennans = experiment: Artificial wound inoculation of Fuji apples, bull's eye rot decay; assay type: in vivo; conditions: solo at full rate (TBZ 1.45 g/L, PYR 1.35 g/L, FDL 0.85 g/L, C. oleophila 0.33 g/L), control 98
Protocol: (§1) Several lab trials were conducted to test efficacy of Candida oleophila strain O against major post-harvest pathogens of pome (Blue mold: Penicillium expansum, Gray mold: Botrytis cinerea, Bull's eye rot: Neofabraea perennans and Mucor rot and to test synergistic interaction of Candida oleophila strain O with 3 post-harvest fungicides of pome fruits namely Fludioxonil (FDL), Pyrimethanil (PYR) and Thiabendazole (TBZ).
(§2) Candida oleophila strain O was applied solo and in combination with three different post-harvest fungicides at full rate (FR) and half label rate (HR) (for conventional fungicides) to study its compatibility and synergist interaction. Testing was done on artificially/lab inoculated and naturally infected fruits.
(§3) For artificial inoculations through wound, washed fruits were wounded twice at the stem end region and were kept for 30 mins to dry the juice from the wound site. Fruits were fully submerged in fungicide solutions for 1 min and then transferred to a perforated basket to drip dry. Fruits were the transferred to the fruit trays and were left to dry overnight. 5×10^4 fungal spores/mL spore suspension of post-harvest pathogens as indicated above was prepared for inoculation. 50 μL spore suspension was transferred in each wound using a pipette and was left to dry for 1 hr at room temperature. Fruits were stored in cold storage. Fruit decay was monitored periodically, when decay on control fruit was above 80%, the disease incidence and severity was evaluated on all the treatments.

[2] = tested on: Candida oleophila strain O; experiment: Compatibility test on fungicide-amended PDA solid medium (colony count of biocontrol agent); assay type: cell-based; conditions: Candida oleophila strain O 10^6 cfu/ml
Penicillium expansum = experiment: Artificial wound inoculation of Fuji apples, blue mold decay; assay type: in vivo; conditions: solo at full rate (TBZ 1.45 g/L, PYR 1.35 g/L, FDL 0.85 g/L, C. oleophila 0.33 g/L), control 94
Protocol: as §1, §2, §3

Mucor sp. = experiment: Artificial wound inoculation of Fuji apples, Mucor rot decay; assay type: in vivo; conditions: solo at full rate (TBZ 1.45 g/L, PYR 1.35 g/L, FDL 0.85 g/L, C. oleophila 0.33 g/L), control 100
Protocol: as §1, §2, §3

Botrytis cinerea = experiment: Artificial wound inoculation of Fuji apples, gray mold decay; assay type: in vivo; conditions: solo at full rate (PYR 1.35 g/L, FDL 0.85 g/L, C. oleophila 0.33 g/L), control 47
Protocol: as §1, §2
as §3, with “50 μL spore suspension was transferred in each wound using a pipette and was left to dry for 1 hr at room temperature. Fruits were stored in cold storage.” left out

In the case of O=S(=O)([O-])[O-].[Cu+2] [Copper sulphate], the “Compatibility of Candida oleophila strain O with the fungicide (text summary of Table 1)” value (“Compatibility … (text summary of Table 1)” below) [1] is reported as “compatible”.

[Cl-].[Cu+2].[Cu+2].[OH-].[OH-].[OH-] [Copper oxychloride] was tested, and the “Compatibility … (text summary of Table 1)” value [1] was “compatible”.

With O=C(Nc1ccccc1-c1ccc(Cl)cc1)c1cccnc1Cl [Boscalid] the “Compatibility … (text summary of Table 1)” value [1] was “compatible”.

With COC(=O)NC(=S)Nc1ccccc1NC(=S)NC(=O)OC [Thiophanate-methyl] the “Compatibility … (text summary of Table 1)” value [1] was “compatible”.

Cn1cc(C(=O)Nc2ccccc2-c2cc(F)c(F)c(F)c2)c(C(F)F)n1 [Fluxapyroxad] was tested, and the “Compatibility … (text summary of Table 1)” value [1] was “compatible”, the Compatibility ([1]; fungicide 300 g/L a.i., tested dosage 0.5-2 ppm) was “YES” and the Compatibility ([1]; fungicide 300 g/L a.i., tested dosage 0.9 ppm) was “YES”.

c1ccc2[nH]c(-c3cscn3)nc2c1 [Thiabendazole] was tested, and the “Decay severity (%) Neofabrea sp.” value (Neofabraea perennans) was 22%, the Compatibility ([2]; fungicide 500 g/L a.i., tested dosage 200 ppm) was “YES” and the “Compatibility … (text summary of Table 1)” value [1] was “compatible”. The “Decay severity (%) Penicillium sp.” value (Penicillium expansum) was 4% and the “Decay severity (%) Mucor sp.” value (Mucor sp.) was 100%.

With COC(=O)N(OC)c1ccccc1COc1ccn(-c2ccc(Cl)cc2)n1 [Pyraclostrobin] the “Compatibility … (text summary of Table 1)” value [1] was “compatible” and the Compatibility ([1]; fungicide 250 g/L a.i., tested dosage 2-8 ppm) was “YES”.

For Cc1cc(C)nc(Nc2ccccc2)n1 [Pyrimethanil], the “Decay severity (%) Neofabrea sp.” value (Neofabraea perennans) was 70%, the “Decay severity (%) Botrytis sp.” value (Botrytis cinerea) was 7% and the Compatibility ([2]; fungicide 600 g/L a.i., tested dosage 800 ppm) was “YES”. The “Compatibility … (text summary of Table 1)” value [1] was “compatible”, the “Decay severity (%) Penicillium sp.” value (Penicillium expansum) was 7% and the “Decay severity (%) Mucor sp.” value (Mucor sp.) was 100%.

N#Cc1c[nH]cc1-c1cccc2c1OC(F)(F)O2 [Fludioxonil] was tested, and the “Decay severity (%) Neofabrea sp.” value (Neofabraea perennans) was 83%, the “Decay severity (%) Botrytis sp.” value (Botrytis cinerea) was 2% and the “Compatibility … (text summary of Table 1)” value [1] was “compatible”. The “Decay severity (%) Penicillium sp.” value (Penicillium expansum) was 0% and the “Decay severity (%) Mucor sp.” value (Mucor sp.) was 100%.
